Data taken from PubChem BioAssay (NCI).
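Exposure lasted 48 hours, with cells grown in 96-well plates and compounds tested at five concentrations. GI50: concentration for 50% inhibition of growth. TGI: total growth inhibition.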

Legend:
Experiment in all cases: NCI tumour cell line growth inhibition, 48 h
A498 renal = tested on: A498 renal
A549 NSCLC = tested on: A549 NSCLC
CAKI-1 renal = tested on: CAKI-1 renal
CCRF-CEM leukemia = tested on: CCRF-CEM leukemia
COLO 205 colon = tested on: COLO 205 colon
DLD-1 colon = tested on: DLD-1 colon
DMS 114 small cell lung = tested on: DMS 114 small cell lung
DMS 273 small cell lung = tested on: DMS 273 small cell lung
EKVX NSCLC = tested on: EKVX NSCLC
HCC-2998 colon = tested on: HCC-2998 colon
HCT-116 colon = tested on: HCT-116 colon
HCT-15 colon = tested on: HCT-15 colon
HL-60(TB) leukemia = tested on: HL-60(TB) leukemia
HOP-18 NSCLC = tested on: HOP-18 NSCLC
HOP-62 NSCLC = tested on: HOP-62 NSCLC
HOP-92 NSCLC = tested on: HOP-92 NSCLC
HT29 colon = tested on: HT29 colon
IGROV1 ovarian = tested on: IGROV1 ovarian
K-562 leukemia = tested on: K-562 leukemia
KM12 colon = tested on: KM12 colon
KM20L2 colon = tested on: KM20L2 colon
LOX IMVI melanoma = tested on: LOX IMVI melanoma
M19-MEL melanoma = tested on: M19-MEL melanoma
MALME-3M melanoma = tested on: MALME-3M melanoma
MCF7 breast = tested on: MCF7 breast
MOLT-4 leukemia = tested on: MOLT-4 leukemia
NCI-H226 lung = tested on: NCI-H226 lung
NCI-H23 lung = tested on: NCI-H23 lung
NCI-H460 lung = tested on: NCI-H460 lung
NCI/ADR-RES ovarian = tested on: NCI/ADR-RES ovarian
OVCAR-3 ovarian = tested on: OVCAR-3 ovarian
OVCAR-4 ovarian = tested on: OVCAR-4 ovarian
OVCAR-5 ovarian = tested on: OVCAR-5 ovarian
OVCAR-8 ovarian = tested on: OVCAR-8 ovarian
P388 leukemia = tested on: P388 leukemia
P388/ADR leukemia = tested on: P388/ADR leukemia
RPMI-8226 leukemia = tested on: RPMI-8226 leukemia
RXF 393 renal = tested on: RXF 393 renal
SF-268 CNS = tested on: SF-268 CNS
SF-295 CNS = tested on: SF-295 CNS
SF-539 CNS = tested on: SF-539 CNS
SK-MEL-2 melanoma = tested on: SK-MEL-2 melanoma
SK-MEL-28 melanoma = tested on: SK-MEL-28 melanoma
SK-MEL-5 melanoma = tested on: SK-MEL-5 melanoma
SK-OV-3 ovarian = tested on: SK-OV-3 ovarian
SN12C renal = tested on: SN12C renal
SN12K1 renal = tested on: SN12K1 renal
SNB-19 CNS = tested on: SNB-19 CNS
SNB-75 CNS = tested on: SNB-75 CNS
SNB-78 CNS = tested on: SNB-78 CNS
SW-620 colon = tested on: SW-620 colon
U251 CNS = tested on: U251 CNS
UACC-257 melanoma = tested on: UACC-257 melanoma
UACC-62 melanoma = tested on: UACC-62 melanoma
UO-31 renal = tested on: UO-31 renal
XF 498 CNS = tested on: XF 498 CNS
786-0 renal = tested on: 786-0 renal
ACHN renal = tested on: ACHN renal
BT-549 breast = tested on: BT-549 breast
DU-145 prostate = tested on: DU-145 prostate
HS 578T breast = tested on: HS 578T breast
M14 melanoma = tested on: M14 melanoma
MDA-MB-231 breast = tested on: MDA-MB-231 breast
MDA-MB-435 = tested on: MDA-MB-435
NCI-H522 lung = tested on: NCI-H522 lung
PC-3 prostate = tested on: PC-3 prostate
SR leukemia = tested on: SR leukemia
TK-10 renal = tested on: TK-10 renal

What does the source list for `Cc1cc(C(=O)NCCN(C)C)c2nc3ccccc3cc2c1`?
TGI (A498 renal): 6.37 µM; TGI (A549 NSCLC): 6.81 µM; TGI (CAKI-1 renal): 1.29 µM; TGI (CCRF-CEM leukemia): 9.57 µM; TGI (COLO 205 colon): 3540 nM; TGI (DLD-1 colon): 10.9 µM; TGI (DMS 114 small cell lung): 4.12 µM; TGI (DMS 273 small cell lung): 10.8 µM; TGI (EKVX NSCLC): 971 nM; TGI (HCC-2998 colon): 17.7 µM; TGI (HCT-116 colon): 10.1 µM; TGI (HCT-15 colon): 11.4 µM; TGI (HL-60(TB) leukemia): 3.95 µM; TGI (HOP-18 NSCLC): 7.16 µM; TGI (HOP-62 NSCLC): 6.38 µM; TGI (HOP-92 NSCLC): 5.27 µM; TGI (HT29 colon): 5.7 µM; TGI (IGROV1 ovarian): 12.6 µM; TGI (K-562 leukemia): > 31300 nM; TGI (KM12 colon): 14.1 µM; TGI (KM20L2 colon): 4.31 µM; TGI (LOX IMVI melanoma): 3.5 µM; TGI (M19-MEL melanoma): 4.42 µM; TGI (MALME-3M melanoma): 4.28 µM; TGI (MCF7 breast): 8 µM; TGI (MOLT-4 leukemia): > 21800 nM; TGI (NCI-H226 lung): 3.33 µM; TGI (NCI-H23 lung): 5.93 µM; TGI (NCI-H460 lung): 2360 nM; TGI (NCI/ADR-RES ovarian): 4.62 µM; TGI (OVCAR-3 ovarian): 8.98 µM; TGI (OVCAR-4 ovarian): 10.6 µM; TGI (OVCAR-5 ovarian): 8.56 µM; TGI (OVCAR-8 ovarian): 4.28 µM; TGI (P388 leukemia): 1680 nM; TGI (P388/ADR leukemia): 2180 nM; TGI (RPMI-8226 leukemia): 5.71 µM; TGI (RXF 393 renal): 4320 nM; TGI (SF-268 CNS): 10.2 µM; TGI (SF-295 CNS): 3910 nM; TGI (SF-539 CNS): 12.7 µM; TGI (SK-MEL-2 melanoma): 7.26 µM; TGI (SK-MEL-28 melanoma): 10.7 µM; TGI (SK-MEL-5 melanoma): 3.6 µM; TGI (SK-OV-3 ovarian): 8.97 µM; TGI (SN12C renal): 7.26 µM; TGI (SN12K1 renal): 2600 nM; TGI (SNB-19 CNS): 6.89 µM; TGI (SNB-75 CNS): 11.8 µM; TGI (SNB-78 CNS): 14.5 µM; TGI (SW-620 colon): 8.88 µM; TGI (U251 CNS): 10.7 µM; TGI (UACC-257 melanoma): 5.02 µM; TGI (UACC-62 melanoma): 5.05 µM; TGI (UO-31 renal): 3.93 µM; TGI (XF 498 CNS): 3.69 µM

How did the GI50 (786-0 renal) turn out when `COc1ccc2[nH]c3c(C)c4ccncc4c(C)c3c2c1` was run?
Its GI50 is 43.6 nM.

And the TGI (786-0 renal)?
The TGI was 1490 nM.

And the TGI (A498 renal)?
The TGI was 2.1 µM.

And the TGI (A549 NSCLC)?
The TGI was 2.15 µM.

What about the GI50 (ACHN renal) of the same compound?
Its GI50 is 19.4 nM.

And the TGI (ACHN renal)?
The TGI was 1510 nM.

What about the GI50 (BT-549 breast) of the same compound?
Its GI50 is 757 nM.

What about the TGI (BT-549 breast) of the same compound?
Its TGI is 2110 nM.

And the TGI (CAKI-1 renal)?
Its TGI is 5.49 µM.

And the TGI (CCRF-CEM leukemia)?
Its TGI is 4.7 µM.

What about the TGI (COLO 205 colon) of the same compound?
Its TGI is 1600 nM.

And the TGI (DLD-1 colon)?
The TGI was 1.33 µM.

And the TGI (DMS 114 small cell lung)?
The TGI was 4.49 µM.

And the TGI (DMS 273 small cell lung)?
The TGI was 1.95 µM.

What about the GI50 (DU-145 prostate) of the same compound?
Its GI50 is 130 nM.

And the TGI (DU-145 prostate)?
Its TGI is 1590 nM.

What about the TGI (EKVX NSCLC) of the same compound?
The TGI was 2710 nM.

And the TGI (HCC-2998 colon)?
Its TGI is 5.57 µM.

What about the TGI (HCT-116 colon) of the same compound?
Its TGI is 1.5 µM.

And the TGI (HCT-15 colon)?
The TGI was 2.3 µM.

And the TGI (HL-60(TB) leukemia)?
The TGI was 2.42 µM.

What about the TGI (HOP-18 NSCLC) of the same compound?
The TGI was 6.44 µM.

And the TGI (HOP-62 NSCLC)?
Its TGI is 3.09 µM.

And the TGI (HOP-92 NSCLC)?
Its TGI is 0.935 µM.

And the GI50 (HS 578T breast)?
The GI50 was 1130 nM.

What about the TGI (HS 578T breast) of the same compound?
Its TGI is 3.55 µM.

What about the TGI (HT29 colon) of the same compound?
Its TGI is 2.4 µM.

What about the TGI (IGROV1 ovarian) of the same compound?
The TGI was 2.41 µM.

What about the TGI (K-562 leukemia) of the same compound?
The TGI was 1430 nM.

What about the TGI (KM12 colon) of the same compound?
Its TGI is 1.68 µM.

What about the TGI (KM20L2 colon) of the same compound?
Its TGI is 7.32 µM.

And the TGI (LOX IMVI melanoma)?
The TGI was 4.29 µM.

And the GI50 (M14 melanoma)?
Its GI50 is 290 nM.

And the TGI (M14 melanoma)?
The TGI was 1630 nM.

And the TGI (MALME-3M melanoma)?
Its TGI is 5.73 µM.

And the TGI (MCF7 breast)?
The TGI was 2.2 µM.

What about the GI50 (MDA-MB-231 breast) of the same compound?
The GI50 was 307 nM.

What about the TGI (MDA-MB-231 breast) of the same compound?
The TGI was 1870 nM.

What about the GI50 (MDA-MB-435) of the same compound?
The GI50 was 208 nM.

And the TGI (MDA-MB-435)?
Its TGI is 1670 nM.

And the TGI (MOLT-4 leukemia)?
The TGI was 802 nM.

And the TGI (NCI-H226 lung)?
Its TGI is 3.89 µM.

What about the TGI (NCI-H23 lung) of the same compound?
The TGI was 2.1 µM.

And the TGI (NCI-H460 lung)?
The TGI was 892 nM.

What about the TGI (NCI-H522 lung) of the same compound?
Its TGI is 2470 nM.

What about the TGI (NCI/ADR-RES ovarian) of the same compound?
The TGI was 1.96 µM.

What about the TGI (OVCAR-3 ovarian) of the same compound?
The TGI was 2.46 µM.

What about the TGI (OVCAR-4 ovarian) of the same compound?
Its TGI is 1.58 µM.

And the TGI (OVCAR-5 ovarian)?
The TGI was 4.07 µM.

What about the TGI (OVCAR-8 ovarian) of the same compound?
Its TGI is 1.92 µM.

What about the TGI (P388 leukemia) of the same compound?
Its TGI is 1870 nM.

What about the TGI (P388/ADR leukemia) of the same compound?
Its TGI is 3470 nM.

What about the GI50 (PC-3 prostate) of the same compound?
The GI50 was 84.3 nM.

And the TGI (PC-3 prostate)?
Its TGI is 2020 nM.

What about the TGI (RPMI-8226 leukemia) of the same compound?
The TGI was 2.73 µM.

What about the TGI (RXF 393 renal) of the same compound?
The TGI was 477 nM.

What about the TGI (SF-268 CNS) of the same compound?
The TGI was 4.65 µM.

And the TGI (SF-295 CNS)?
Its TGI is 1260 nM.

And the TGI (SF-539 CNS)?
The TGI was 1.45 µM.

And the TGI (SK-MEL-2 melanoma)?
The TGI was 5.36 µM.

What about the TGI (SK-MEL-28 melanoma) of the same compound?
The TGI was 9.06 µM.

What about the TGI (SK-MEL-5 melanoma) of the same compound?
The TGI was 2.86 µM.

And the TGI (SK-OV-3 ovarian)?
The TGI was 5.16 µM.

What about the TGI (SN12C renal) of the same compound?
Its TGI is 2.54 µM.

What about the TGI (SN12K1 renal) of the same compound?
The TGI was 1310 nM.

What about the TGI (SNB-19 CNS) of the same compound?
The TGI was 7.83 µM.

What about the TGI (SNB-75 CNS) of the same compound?
The TGI was 2.77 µM.

And the TGI (SNB-78 CNS)?
Its TGI is 11.7 µM.

And the TGI (SR leukemia)?
The TGI was 6.83 µM.

And the TGI (SW-620 colon)?
Its TGI is 1.56 µM.

What about the GI50 (TK-10 renal) of the same compound?
Its GI50 is 1120 nM.

And the TGI (TK-10 renal)?
Its TGI is 4.37 µM.

And the TGI (U251 CNS)?
Its TGI is 4.19 µM.

And the TGI (UACC-257 melanoma)?
The TGI was 8.12 µM.

What about the TGI (UACC-62 melanoma) of the same compound?
Its TGI is 2.54 µM.

What about the TGI (UO-31 renal) of the same compound?
Its TGI is 4.25 µM.

And the TGI (XF 498 CNS)?
The TGI was 6.66 µM.
